{"source": "patent US20050065140A1", "about": "“Serotonine reuptake inhibitor” (priority 2001, published 2005)", "key": {"human 5-HT1A receptor": {"target": "T1, human 5-HT1A receptor (Homo sapiens, UniProt P08908)", "T1 construct": "expressed in transfected cells; host or cells: CHO cells (human 5-HT1A/CHO), membrane preparation", "T1 sequence (P08908 1-422)": "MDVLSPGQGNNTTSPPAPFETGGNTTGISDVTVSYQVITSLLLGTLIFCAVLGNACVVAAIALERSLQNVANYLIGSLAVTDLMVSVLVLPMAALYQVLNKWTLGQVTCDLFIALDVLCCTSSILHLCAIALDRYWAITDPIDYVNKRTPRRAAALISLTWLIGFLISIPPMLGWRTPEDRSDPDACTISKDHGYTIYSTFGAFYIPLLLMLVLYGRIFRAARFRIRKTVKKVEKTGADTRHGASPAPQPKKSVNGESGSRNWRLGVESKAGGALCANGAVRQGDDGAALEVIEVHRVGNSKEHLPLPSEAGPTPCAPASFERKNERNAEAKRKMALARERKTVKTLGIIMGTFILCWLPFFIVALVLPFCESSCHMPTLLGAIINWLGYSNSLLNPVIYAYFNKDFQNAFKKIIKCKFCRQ", "assay": "5-HT1A receptor stimulation test, [^35S]GTPγS binding (Test Example 3)", "type": "biochemical", "details": "10^-5 M test substance; membranes of human 5-HT1A/CHO cells; increase in [^35S]GTPγS binding caused by 10 μM 5-HT taken as 100%", "description": "5-HT1A Receptor Stimulation Test\nCHO cells expressing human 5-HT1A receptor (human 5-HT1A/CHO) were used in the experiment. The cells were cultured in F12 containing 10% FCS, 500 μg/ml Geneticin and 100 U/ml penicillin-100 μg/ml streptomycin (all available from GIBCO) in a 5% CO2 incubator, and a membrane preparation was prepared according to the method^3)of A. Newman et al. In detail, cells scraped and collected by the use of buffer solution A (20 mM HEPES, 5 mM MgSO4) were homogenized in a Teflon™ homogenizer, followed by centrifugation (50,000×g, 30 min, 4° C.). The precipitate was re-suspended in a suitable volume of buffer solution A and stored at −80° C. until use. The amount of protein in the membrane preparation was determined with Dye Reagent Concentrate (BIO-RAD) by using Albumin Bovine (SIGMA) as a standard substance.\nBinding of [^35S]GTPγS to human 5-HT1A receptors was measured by the use of the above-mentioned membrane preparation according to the method^3)of A. Newman et al. In detail, 0.05 nM of [^35S]GTPγS (E.I. du Pont de Nemours & Co. NEN) and a definite amount (about 50 μg/tube) of the membrane preparation were added to buffer solution B (20 mM HEPES, 3 mM MgSO4, 3 μM GDP, 1 mM DTT) containing 10^−5 M of each test substance, and the resulting liquid for reaction having a total volume of 1 ml was incubated at 22° C. for 20 minutes. After completion of the reaction, the reaction mixture was diluted with 5 ml of ice-cooled buffer solution B, and the dilution was immediately filtered by suction through glass fiber filter (Whatman, GF/B) to terminate the reaction. The glass fiber filter was washed twice with the same buffer solution as above and placed in a vial, and 4 ml of ACS-II was added thereto. The radioactivity of [^35S]GTPγS on the filter was measured with a liquid scintillation counter. The amount of [^35S]GTPγS specifically bound was calculated from the amount of [^35S]GTPγS non-specifically bound in the presence of 10 μM of GTPγS (Sigma). The 5-HT1A receptor stimulating activity of each test substance was expressed in terms of the rate of increase in [^35S]GTPγS binding by taking an increase in [^35S]GTPγS binding caused by 10 μM of 5-HT, as 100%."}}}
{"smiles": "COc1ccc(Br)c(CC2CCN(CC[C@H]3CC[C@@H](CCO)CC3)CC2)c1.Cl", "note": "[Example 64, cis-2-(4-(2-(4-(2-Bromo-5-methoxybenzyl)-piperidin-1-yl)ethyl)cyclohexyl)ethanol Hydrochloride]", "values": [{"measurement": "5-HT1A receptor stimulating activity (%)", "setting": "human 5-HT1A receptor", "result": 19, "unit": "%"}, {"measurement": "melting point", "result": 273, "unit": "°C"}]}
{"smiles": "COc1ccc(Br)c(CC2CCN(CC[C@H]3CC[C@H](NS(=O)(=O)N(C)C)CC3)CC2)c1.Cl", "note": "[Example 47, trans-N′-(4-(2-(4-(2-bromo-5-methoxybenzyl)-piperidin-1-yl)ethyl)cyclohexyl)-N,N-dimethylsulfamide hydrochloride]", "values": [{"measurement": "5-HT1A receptor stimulating activity (%)", "setting": "human 5-HT1A receptor", "result": 37, "unit": "%"}, {"measurement": "melting point", "result": 214, "unit": "°C"}]}
{"smiles": "CCN(CCOC)[C@H]1CC[C@H](CCN2CCC(Cc3cc(OC)ccc3Br)CC2)CC1.Cl.Cl", "note": "[Example 58, trans-N-(4-(2-(4-(2-bromo-5-methoxybenzyl)-piperidin-1-yl)ethyl)cyclohexyl)-N-ethyl-N-(2-methoxyethyl)amine Dihydrochloride]", "values": [{"measurement": "5-HT1A receptor stimulating activity (%)", "setting": "human 5-HT1A receptor", "result": 30, "unit": "%"}, {"measurement": "melting point", "result": 78, "unit": "°C"}]}
{"smiles": "CCN(CC)[C@H]1CC[C@@H](CCCN2CCC(Cc3cc(OC)ccc3Br)CC2)CC1.Cl.Cl", "note": "[Example 54, cis-N-(4-(3-(4-(2-bromo-5-methoxybenzyl)-piperidin-1-yl)propyl)cyclohexyl)-N,N-diethylamine Dihydrochloride]", "values": [{"measurement": "5-HT1A receptor stimulating activity (%)", "setting": "human 5-HT1A receptor", "result": 16, "unit": "%"}]}
{"smiles": "COc1ccc(Br)c(CC2CCN(CCC3CCN(CCO)CC3)CC2)c1.Cl.Cl", "note": "[Example 6, 2-(4-(2-(4-(2-Bromo-5-methoxybenzyl)-1-piperidinyl)ethyl)-1-piperidinyl)ethanol Dihydrochloride]", "values": [{"measurement": "5-HT1A receptor stimulating activity (%)", "setting": "human 5-HT1A receptor", "result": 53, "unit": "%"}]}
{"smiles": "CO[C@H]1CC[C@H](CCN2CCC(Cc3cc(OC(C)C)ccc3Br)CC2)CC1.Cl", "note": "[Example 44, trans-4-(2-Bromo-5-isopropoxybenzyl)-1-(2-(4-methoxycyclohexyl)ethyl)piperidine Hydrochloride]", "values": [{"measurement": "5-HT1A receptor stimulating activity (%)", "setting": "human 5-HT1A receptor", "result": 51, "unit": "%"}, {"measurement": "melting point", "result": 196, "unit": "°C"}]}
{"smiles": "COc1ccc(Br)c(CC2CCN(CC[C@H]3CC[C@H](NC(=O)C(F)(F)F)CC3)CC2)c1.Cl", "note": "[Example 48, trans-N-(4-(2-(4-(2-bromo-5-methoxybenzyl)-piperidin-1-yl)ethyl)cyclohexyl)-2,2,2-trifluoro-acetamide Hydrochloride]", "values": [{"measurement": "5-HT1A receptor stimulating activity (%)", "setting": "human 5-HT1A receptor", "result": 33, "unit": "%"}, {"measurement": "melting point", "result": 230, "unit": "°C"}]}
{"smiles": "COc1ccc(Br)c(CC2CCN(CC3CCc4ccccc4N3)CC2)c1.Cl.Cl", "note": "(stereo not shown) [Example 69, 2-((4-(2-Bromo-5-methoxybenzyl)piperidin-1-yl)methyl)-1,2,3,4-tetrahydroquinoline Dihydrochloride]", "values": [{"measurement": "5-HT1A receptor stimulating activity (%)", "setting": "human 5-HT1A receptor", "result": 63, "unit": "%"}]}
{"smiles": "CCN[C@H]1CC[C@H](CCN2CCC(Cc3cc(OC)ccc3Br)CC2)CC1.Cl.Cl", "note": "[Example 38, trans-N-(4-(2-(4-(2-bromo-5-methoxybenzyl)-piperidin-1-yl)ethyl)cyclohexyl)-N-ethylamine Dihydrochloride]", "values": [{"measurement": "5-HT1A receptor stimulating activity (%)", "setting": "human 5-HT1A receptor", "result": 48, "unit": "%"}]}
{"smiles": "CCN([C@H]1CC[C@H](CCCN2CCC(Cc3cc(OC(C)C)ccc3Br)CC2)CC1)S(C)(=O)=O.Cl", "note": "[Example 46, trans-N-(4-(3-(4-(2-bromo-5-isopropoxy-benzyl)piperidin-1-yl)propyl)cyclohexyl)-N-ethylmethanesulfonamide Hydrochloride]", "values": [{"measurement": "5-HT1A receptor stimulating activity (%)", "setting": "human 5-HT1A receptor", "result": 62, "unit": "%"}]}
{"smiles": "Cl.Cl.Clc1ccc(Br)c(CC2CCN(CC3CCc4ccccc4N3)CC2)c1", "note": "(stereo not shown) [Example 67, 2-((4-(2-Bromo-5-chlorobenzyl)piperidin-1-yl)methyl)-1,2,3,4-tetrahydroquinoline Dihydrochloride]", "values": [{"measurement": "5-HT1A receptor stimulating activity (%)", "setting": "human 5-HT1A receptor", "result": 74, "unit": "%"}, {"measurement": "melting point", "result": 227, "unit": "°C"}]}
{"smiles": "CC(C)Oc1ccc(Br)c(CC2CCN(CC3CCc4ccccc4N3)CC2)c1.Cl.Cl", "note": "(stereo not shown) [Example 65, 2-((4-(2-Bromo-5-isopropoxybenzyl)piperidin-1-yl)methyl)-1,2,3,4-tetrahydroquinoline Dihydrochloride]", "values": [{"measurement": "5-HT1A receptor stimulating activity (%)", "setting": "human 5-HT1A receptor", "result": 64, "unit": "%"}]}
{"smiles": "COc1ccc(Br)c(CC2CCN(CC3CNc4ccccc4C3)CC2)c1.Cl.Cl", "note": "(stereo not shown) [Example 70, 3-((4-(2-Bromo-5-methoxybenzyl)piperidin-1-yl)methyl)-1,2,3,4-tetrahydroquinoline Dihydrochloride]", "values": [{"measurement": "5-HT1A receptor stimulating activity (%)", "setting": "human 5-HT1A receptor", "result": 7, "unit": "%"}]}
